# From PMC9288506, “Compounds activating VCP D1 ATPase enhance both autophagic and proteasomal neurotoxic protein clearance” (Nature Communications, 2022)
# Experiments:
# Experiment in all cases: biochemical
# Set-up in all cases: Thermo Fisher in vitro kinase panel, per cent inhibition of kinase activity at 10 uM
# ABL2 (Arg) = ABL2 (Arg) (Homo sapiens, UniProt P42684)
# Procedure: (§1) Kinase profiling of SMER28 and analogs SMER28 and analogs were tested at 10 µM in a panel of 123 kinases at ThermoFisher Scientific. Follow-up of selected kinases for SMER28 and analogs was also performed at ThermoFisher Scientific. Data are shown in Supplementary Data 2 and 3. […] An inhibition of PIK3C could induce autophagy, mediated by signaling through the AKT/mTOR axis[45].
# BRAF = BRAF (Homo sapiens, UniProt P15056)
# Procedure: as §1
# CAMK1 (CaMK1) = CAMK1 (CaMK1) (Homo sapiens, UniProt Q14012)
# Procedure: as §1
# CDK2/cyclin A = CDK2/cyclin A (Homo sapiens, UniProt P24941)
# Procedure: as §1
# CSNK1G1 (CK1 gamma 1) = CSNK1G1 (CK1 gamma 1) (Homo sapiens, UniProt Q9HCP0)
# Procedure: as §1
# DDR2 = DDR2 (Homo sapiens, UniProt Q16832)
# Procedure: as §1
# EGFR (ErbB1) T790M L858R = EGFR (ErbB1) T790M L858R (Homo sapiens, UniProt P00533, L858R/T790M)
# Procedure: as §1
# EPHB1 = EPHB1 (Homo sapiens, UniProt P54762)
# Procedure: as §1
# ERBB4 (HER4) = ERBB4 (HER4) (Homo sapiens, UniProt Q15303)
# Procedure: as §1
# FGFR4 = FGFR4 (Homo sapiens, UniProt P22455)
# Procedure: as §1
# FLT1 (VEGFR1) = FLT1 (VEGFR1) (Homo sapiens, UniProt P17948)
# Procedure: as §1
# FYN = FYN (Homo sapiens, UniProt P06241)
# Procedure: as §1
# IGF1R = IGF1R (Homo sapiens, UniProt P08069)
# Procedure: as §1
# IRAK4 = IRAK4 (Homo sapiens, UniProt Q9NWZ3)
# Procedure: as §1
# LYN A = target: T1, LYN A (Homo sapiens, UniProt P07948)
# T1 construct: isoform A
# Procedure: as §1
# MAPK1 (ERK2) = MAPK1 (ERK2) (Homo sapiens, UniProt P28482)
# Procedure: as §1
# MAPKAPK2 = MAPKAPK2 (Homo sapiens, UniProt P49137)
# Procedure: as §1
# PAK7 (KIAA1264) = target: T2, PAK7 (KIAA1264) (Homo sapiens, UniProt Q9P286)
# T2 construct: gene PAK5
# Procedure: as §1
# PIM2 = PIM2 (Homo sapiens, UniProt Q9P1W9)
# Procedure: as §1
# RET = RET (Homo sapiens, UniProt P07949)
# Procedure: as §1
# RET V804M = RET V804M (Homo sapiens, UniProt P07949, V804M)
# Procedure: as §1
# ROCK1 = ROCK1 (Homo sapiens, UniProt Q13464)
# Procedure: as §1
# TGFBR1 (ALK5) = TGFBR1 (ALK5) (Homo sapiens, UniProt P36897)
# Procedure: as §1
# Sequence of ROCK1 (Q13464 whole entry): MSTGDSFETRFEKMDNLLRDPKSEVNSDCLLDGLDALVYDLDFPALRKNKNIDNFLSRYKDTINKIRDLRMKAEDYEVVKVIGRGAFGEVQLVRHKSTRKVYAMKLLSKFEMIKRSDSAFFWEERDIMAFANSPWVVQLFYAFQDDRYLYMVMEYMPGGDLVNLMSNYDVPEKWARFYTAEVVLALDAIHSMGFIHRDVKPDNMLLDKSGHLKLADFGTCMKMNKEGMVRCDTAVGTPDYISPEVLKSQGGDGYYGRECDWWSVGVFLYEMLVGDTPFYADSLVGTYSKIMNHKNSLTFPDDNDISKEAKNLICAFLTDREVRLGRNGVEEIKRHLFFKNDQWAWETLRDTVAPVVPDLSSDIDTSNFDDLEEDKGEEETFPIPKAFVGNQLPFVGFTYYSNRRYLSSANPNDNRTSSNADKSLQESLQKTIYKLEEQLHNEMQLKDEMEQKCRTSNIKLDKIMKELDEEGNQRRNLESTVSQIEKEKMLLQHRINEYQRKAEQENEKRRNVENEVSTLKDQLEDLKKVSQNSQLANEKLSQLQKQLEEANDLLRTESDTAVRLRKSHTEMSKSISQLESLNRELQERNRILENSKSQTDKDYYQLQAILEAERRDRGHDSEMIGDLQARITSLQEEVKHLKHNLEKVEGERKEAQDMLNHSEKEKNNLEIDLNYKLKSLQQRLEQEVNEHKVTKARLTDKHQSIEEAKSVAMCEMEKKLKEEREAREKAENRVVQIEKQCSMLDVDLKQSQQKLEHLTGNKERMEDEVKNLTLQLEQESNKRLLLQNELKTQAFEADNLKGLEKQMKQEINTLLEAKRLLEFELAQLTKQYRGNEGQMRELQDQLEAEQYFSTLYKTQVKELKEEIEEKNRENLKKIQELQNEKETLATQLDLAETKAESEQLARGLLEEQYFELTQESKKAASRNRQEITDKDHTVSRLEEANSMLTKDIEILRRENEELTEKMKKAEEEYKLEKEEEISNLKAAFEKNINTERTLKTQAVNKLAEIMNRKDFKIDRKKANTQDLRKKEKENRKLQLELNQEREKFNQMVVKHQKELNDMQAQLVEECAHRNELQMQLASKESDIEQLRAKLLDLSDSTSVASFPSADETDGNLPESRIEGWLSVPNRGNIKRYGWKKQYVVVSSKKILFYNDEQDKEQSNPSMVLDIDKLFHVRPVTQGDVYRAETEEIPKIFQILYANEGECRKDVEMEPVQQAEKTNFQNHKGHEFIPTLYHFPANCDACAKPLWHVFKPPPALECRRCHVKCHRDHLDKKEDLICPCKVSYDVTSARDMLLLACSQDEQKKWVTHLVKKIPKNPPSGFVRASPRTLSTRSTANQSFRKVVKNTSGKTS
# Sequence of BRAF (P15056 whole entry): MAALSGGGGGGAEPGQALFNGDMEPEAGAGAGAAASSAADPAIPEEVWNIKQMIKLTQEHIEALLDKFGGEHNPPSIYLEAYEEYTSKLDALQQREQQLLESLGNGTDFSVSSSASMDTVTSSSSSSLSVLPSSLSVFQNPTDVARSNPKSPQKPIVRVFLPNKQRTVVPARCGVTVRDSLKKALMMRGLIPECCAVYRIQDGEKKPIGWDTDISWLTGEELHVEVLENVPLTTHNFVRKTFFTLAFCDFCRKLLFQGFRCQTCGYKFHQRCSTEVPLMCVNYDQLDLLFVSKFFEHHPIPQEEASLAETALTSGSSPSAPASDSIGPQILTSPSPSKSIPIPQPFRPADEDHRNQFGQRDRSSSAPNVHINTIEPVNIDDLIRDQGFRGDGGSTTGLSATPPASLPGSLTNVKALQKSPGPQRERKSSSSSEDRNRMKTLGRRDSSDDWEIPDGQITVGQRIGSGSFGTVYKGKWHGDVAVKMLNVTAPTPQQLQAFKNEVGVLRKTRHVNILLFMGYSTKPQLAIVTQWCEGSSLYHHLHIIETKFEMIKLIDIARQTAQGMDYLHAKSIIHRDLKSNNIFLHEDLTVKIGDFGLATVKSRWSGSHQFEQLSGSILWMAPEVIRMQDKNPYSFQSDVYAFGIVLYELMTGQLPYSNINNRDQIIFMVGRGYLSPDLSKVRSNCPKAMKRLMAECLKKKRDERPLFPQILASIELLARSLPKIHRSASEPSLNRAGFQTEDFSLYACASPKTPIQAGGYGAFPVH
# T1 sequence (P07948 whole entry, canonical isoform): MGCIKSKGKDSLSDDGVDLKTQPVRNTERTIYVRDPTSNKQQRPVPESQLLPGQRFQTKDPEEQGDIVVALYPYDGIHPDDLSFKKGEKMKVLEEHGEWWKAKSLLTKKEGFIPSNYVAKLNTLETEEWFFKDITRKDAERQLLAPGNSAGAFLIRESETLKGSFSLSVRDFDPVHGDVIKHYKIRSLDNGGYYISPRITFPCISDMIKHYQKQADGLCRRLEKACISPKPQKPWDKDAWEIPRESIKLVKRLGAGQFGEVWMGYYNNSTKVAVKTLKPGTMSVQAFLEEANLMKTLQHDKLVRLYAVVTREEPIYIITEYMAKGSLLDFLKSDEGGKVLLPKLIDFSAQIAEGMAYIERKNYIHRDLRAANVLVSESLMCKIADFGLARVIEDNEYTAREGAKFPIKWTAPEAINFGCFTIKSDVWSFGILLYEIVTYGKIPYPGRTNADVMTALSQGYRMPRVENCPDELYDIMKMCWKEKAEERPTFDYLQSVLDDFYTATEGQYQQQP
# Sequence of DDR2 (Q16832 whole entry): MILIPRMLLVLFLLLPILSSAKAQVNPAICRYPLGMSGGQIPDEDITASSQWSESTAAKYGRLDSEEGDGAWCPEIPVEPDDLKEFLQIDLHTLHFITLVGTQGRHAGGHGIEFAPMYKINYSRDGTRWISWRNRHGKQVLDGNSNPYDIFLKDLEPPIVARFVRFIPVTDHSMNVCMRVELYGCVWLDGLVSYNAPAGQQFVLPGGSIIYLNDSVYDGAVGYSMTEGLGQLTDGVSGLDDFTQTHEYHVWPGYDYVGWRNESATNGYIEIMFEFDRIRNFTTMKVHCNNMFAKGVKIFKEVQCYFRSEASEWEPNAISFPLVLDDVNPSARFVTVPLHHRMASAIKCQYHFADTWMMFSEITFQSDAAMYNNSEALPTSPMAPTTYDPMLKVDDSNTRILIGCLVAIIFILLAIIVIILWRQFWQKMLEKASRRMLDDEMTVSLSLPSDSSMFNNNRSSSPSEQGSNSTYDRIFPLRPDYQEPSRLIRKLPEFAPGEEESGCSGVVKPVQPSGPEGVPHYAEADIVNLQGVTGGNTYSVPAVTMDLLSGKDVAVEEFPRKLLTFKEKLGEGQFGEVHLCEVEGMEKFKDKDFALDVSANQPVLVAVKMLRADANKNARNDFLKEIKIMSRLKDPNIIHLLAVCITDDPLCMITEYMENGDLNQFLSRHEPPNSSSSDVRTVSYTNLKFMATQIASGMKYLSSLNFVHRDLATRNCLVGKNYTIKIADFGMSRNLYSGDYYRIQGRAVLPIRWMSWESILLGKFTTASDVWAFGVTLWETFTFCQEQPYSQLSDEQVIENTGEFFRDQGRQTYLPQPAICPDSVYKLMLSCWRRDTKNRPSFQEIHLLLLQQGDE
# Sequence of TGFBR1 (ALK5) (P36897 whole entry): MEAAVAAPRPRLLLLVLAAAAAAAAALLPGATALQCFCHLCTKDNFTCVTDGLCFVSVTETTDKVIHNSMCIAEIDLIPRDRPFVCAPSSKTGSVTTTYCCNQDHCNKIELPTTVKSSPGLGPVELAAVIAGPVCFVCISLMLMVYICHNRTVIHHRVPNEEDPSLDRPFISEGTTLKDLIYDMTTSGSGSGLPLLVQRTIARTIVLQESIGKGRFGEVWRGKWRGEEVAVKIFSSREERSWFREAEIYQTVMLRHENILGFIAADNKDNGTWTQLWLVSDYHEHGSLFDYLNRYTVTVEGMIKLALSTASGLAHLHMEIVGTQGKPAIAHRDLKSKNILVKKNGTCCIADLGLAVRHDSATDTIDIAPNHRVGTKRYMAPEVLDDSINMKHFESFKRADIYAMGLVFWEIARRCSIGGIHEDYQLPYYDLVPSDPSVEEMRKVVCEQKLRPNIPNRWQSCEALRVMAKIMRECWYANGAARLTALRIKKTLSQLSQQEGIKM
# Sequence of PIM2 (Q9P1W9 whole entry): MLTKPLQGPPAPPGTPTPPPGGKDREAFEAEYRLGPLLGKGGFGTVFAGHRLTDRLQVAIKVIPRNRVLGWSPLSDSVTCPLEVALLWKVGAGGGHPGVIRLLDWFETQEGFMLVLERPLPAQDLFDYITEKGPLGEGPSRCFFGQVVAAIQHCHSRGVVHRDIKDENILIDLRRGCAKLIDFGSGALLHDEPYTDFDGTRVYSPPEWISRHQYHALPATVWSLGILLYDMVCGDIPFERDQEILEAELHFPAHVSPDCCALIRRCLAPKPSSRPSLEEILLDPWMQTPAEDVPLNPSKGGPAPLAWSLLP
# Sequence of CSNK1G1 (CK1 gamma 1) (Q9HCP0 whole entry): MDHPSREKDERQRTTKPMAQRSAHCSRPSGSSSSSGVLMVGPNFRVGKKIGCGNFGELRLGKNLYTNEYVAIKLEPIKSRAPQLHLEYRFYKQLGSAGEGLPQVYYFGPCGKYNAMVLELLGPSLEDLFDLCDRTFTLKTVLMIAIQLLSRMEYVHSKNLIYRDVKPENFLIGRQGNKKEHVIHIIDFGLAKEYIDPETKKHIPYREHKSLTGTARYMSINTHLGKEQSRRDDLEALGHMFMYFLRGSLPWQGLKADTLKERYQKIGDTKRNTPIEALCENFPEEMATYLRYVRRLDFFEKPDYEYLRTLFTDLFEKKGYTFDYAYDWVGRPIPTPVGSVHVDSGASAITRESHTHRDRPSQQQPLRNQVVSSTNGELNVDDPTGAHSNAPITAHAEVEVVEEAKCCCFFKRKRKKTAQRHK
compound,measurement,setting,value
C=CCNc1ncnc2ccc(Br)cc12 [SMER28],inhibition at 10 µM,ABL2 (Arg),3%
same,inhibition at 10 µM,BRAF,13%
same,inhibition at 10 µM,CAMK1 (CaMK1),13%
same,inhibition at 10 µM,CDK2/cyclin A,15%
same,inhibition at 10 µM,CSNK1G1 (CK1 gamma 1),31%
same,inhibition at 10 µM,DDR2,0%
same,inhibition at 10 µM,EGFR (ErbB1) T790M L858R,15%
same,inhibition at 10 µM,EPHB1,6%
same,inhibition at 10 µM,ERBB4 (HER4),10%
same,inhibition at 10 µM,FGFR4,7%
same,inhibition at 10 µM,FLT1 (VEGFR1),9%
same,inhibition at 10 µM,FYN,9%
same,inhibition at 10 µM,IGF1R,12%
same,inhibition at 10 µM,IRAK4,68%
same,inhibition at 10 µM,LYN A,20%
same,inhibition at 10 µM,MAPK1 (ERK2),-2%
same,inhibition at 10 µM,MAPKAPK2,0%
same,inhibition at 10 µM,PAK7 (KIAA1264),7%
same,inhibition at 10 µM,PIM2,-15%
same,inhibition at 10 µM,RET,25%
same,inhibition at 10 µM,RET V804M,38%
same,inhibition at 10 µM,ROCK1,-13%
same,inhibition at 10 µM,TGFBR1 (ALK5),6%
